Assay results taken from patent US11716994B2, “Combinations of Yersinia entomophaga and pesticides or other substances” (priority 2017, dated 2023).
Several values for one entry are separate records, joined by “and”; a condition that tells them apart may be missing. Equal values may be shown once. Read-outs that look alike come from different tables or passages of the source.

What was measured:
[1] = system: cabbage looper
[2] = system: corn earworm; experiment: Leaf disk mortality assay, Y. entomophaga cells with chemical insecticides; assay type: in vivo; parameters: mortality: dose or concentration left out as unconfirmed; conditions: for % Mort. Chem. / LT50 Chem.: corn earworm
Experimental: 50 μl suspensions of either acetone (controls and Y. entomophaga alone treatments) or of thiodicarb (Sigma 34375) at a concentration of 140 mg/L in acetone were then dropped onto each cabbage disk. These were set to dry for 1 hr. After the disks had dried, one 2nd instar corn earworm was added to each disk. A total of 12 insects were evaluated for each treatment.
50 μl suspensions of either acetone (controls and Y. entomophaga alone treatments) or of chlorantraniliprole (Sigma 32510) at a concentration of 18 mg/L in acetone were then dropped onto each cabbage disk. These were set to dry for 1 hr. After the disks had dried, one 2nd instar corn earworm was added to each disk. A total of 24 insects were evaluated for each treatment.

[3] = system: Yersinia entomophaga; experiment: CFU counts after exposure of Yersinia entomophaga to insecticides; assay type: cell-based; conditions: 1 hour contact
In short: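 Insecticides at 1× (label-rate based) and 5× or 10× amounts were dried from ethyl acetate as a coat inside tubes. Diluted LB-grown Y. entomophaga culture (1 ml) was added and held 1 hour on the bench. Then 100 μl was plated in triplicate on LB and colonies were counted after 48 hours at 25° C.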

[4] = system: tobacco budworm; conditions: for LT50 (95% confidence intervals) in days: in vivo; for % Mort. Chem. / LT50 Chem.: tobacco budworm; for % Mort. Chem.: 1 DAT
[5] = system: cabbage looper; experiment: whole plant or invertebrate; conditions: Trichoplusia ni, foliar
[6] = system: tobacco budworm; experiment: whole plant or invertebrate; conditions: Heliothis virescens, foliar
[7] = system: western flower thrips; experiment: Leaf disk mortality assay, Y. entomophaga cells with chemical insecticides; assay type: in vivo; conditions: for mortality at 100 µg/mL: Frankliniella occidentalis, foliar; for mortality at 100 µg/mL / LT50 (95% confidence intervals) in days: adults, imidacloprid 100 mg/L; for % Mort. Chem.: Imidacloprid 100 mg/L
Experimental: These were set to dry for 1 hr. After the disks had dried, two were placed in individual cups and 12 adult western flower thrips were added. This experiment was repeated and a total of 24 insects were evaluated for each treatment.

[8] = system: Colorado potato beetle; conditions: for LT50 (95% confidence intervals): 3rd instar Colorado potato beetle, O43NEW undiluted filtrate, alone or combined
Experimental: (§2) To produce cell free filtrates, cultures of Yersinia entomophaga grown in LB medium were centrifuged at 11,448 (g) for 10 minutes. The supernatant was decanted from the centrifuged pellet and filtered through a 0.22 μm filter. Assays were performed to determine concentrations of Yen-TC (toxin complex) using ELISA, and chitinase by measuring chitinase activity on specific substrates. […] This was done to estimate relative potency of the cell free filtrates. Insects were first pre-screened with a range of dilutions of cell free filtrates to select a concentration that provided moderate activity. […] Based on these initial screens, undiluted cell free filtrate was used for cabbage looper, fall armyworm, black cutworm, and Colorado potato beetle. […] In each of the Examples below, this is expressed as 1%.
Tomato leaf disks were dipped in either acetone (controls and Y. entomophaga alone treatments) or thiacloprid (Sigma 37905) at 1 mg/L in acetone. These were set to dry for 1 hr. […] After the tomato disks had dried for 1 hr, a single 3rd instar Colorado potato beetle was added to each individual cabbage disk. A total of 20 insects were evaluate for each treatment. Insects were observed daily and scored as live or dead.

[9] = system: Colorado potato beetle; experiment: Tomato leaf disk mortality assay, Y. entomophaga cells with chemical insecticides; conditions: for mortality at 0.56 µg/mL: Leptinotarsa decemlineata, in Solanum lycopersicum, foliar
[10] = system: Colorado potato beetle; conditions: in vivo
[11] = system: fall armyworm; experiment: Leaf disk mortality assay, Y. entomophaga cells with chemical insecticides
[12] = system: diamondback moth; conditions: in vivo
[13] = system: fall armyworm; conditions: in vivo
[14] = system: cabbage looper; conditions: spinosad 7.5 mg/L
Experimental: as §2
Cabbage leaf disks were dipped in either acetone (controls and Y. entomophaga alone treatments) or novaluron (Sigma 32419) at 1.0 mg/L in acetone. These were set to dry for 1 hr. […] After the cabbage disks had dried for 1 hr, a single 3rd instar cabbage looper was added to each individual cabbage disk. A total of 20 insects were evaluate for each treatment. Insects were observed daily and scored as live or dead.

[15] = system: diamondback moth; experiment: Leaf disk mortality assay, Y. entomophaga cells with chemical insecticides; conditions: in vivo
[16] = system: diamondback moth; experiment: whole plant or invertebrate; conditions: spinosad […]
Source text: (§1) These were set to dry for 1 hr.
as §1
These were set to dry for 1 hr. Cabbage disks were then dipped in either 1% Luria broth (LB) media solution (controls and thiacloprid alone treatments) or in 1% cell free filtrate from a culture Y. entomophaga isolate O24G3R (Y. entomophaga alone or in combination with thiacloprid treatments).

[17] = Chlorantraniliprole alone 18 mg/L
[18] = 24 h, read-out: % Mortality (1DAT)
[19] = 48 h, read-out: % Mortality (2DAT)
[20] = 3rd instar, spinosad 25 mg/L, isolate O24G3R 1×10^5 cfu/mL
[21] = 3rd instar, spinosad 25 mg/L, isolate O348UX 1×10^5 cfu/mL

With `CNC(=O)c1cc(Cl)cc(C)c1NC(=O)c1cc(Br)nn1-c1ncccc1Cl` [Chlorantraniliprole] the “% Mort. Chem.” value ([1]; cabbage looper, Chlorantraniliprole 18 mg/L, 1 DAT) was 8%, the “LT50 Chem.” value ([1]; cabbage looper, Chlorantraniliprole alone 18 mg/L) was 2.39 days and the “% Mort. Chem.” value ([1]; in vivo) was 38%. The “LT50 (95% confidence intervals) in days” value ([1]; in vivo) was 2.39 (2.10-2.70) days, the “LT50 (95% confidence intervals) in days” value ([2]; 2nd instar, chlorantraniliprole 18 mg/L, isolate O43NEW 1×10^5 cfu/mL) was 3.29 (2.85-3.77) days and the mortality at 18 µg/mL ([2]; Helicoverpa zea, foliar, 24 h, 2nd instar, chlorantraniliprole 18 mg/L, isolate O43NEW 1×10^5 cfu/mL, read-out: % Mortality (1DAT)) was 0%. For the same compound, the mortality at 18 µg/mL ([2]; Helicoverpa zea, foliar, 48 h, 2nd instar, chlorantraniliprole 18 mg/L, isolate O43NEW 1×10^5 cfu/mL, read-out: % Mortality (2DAT)) was 0%, the “% Mort. Chem.” value ([2]; Chlorantraniliprole 18 mg/L, 2 DAT (row with O43NEW 1 × 10^3)) was 0% and the “% Mort. Chem.” value ([2]; Chlorantraniliprole 18 mg/L, 2 DAT (row with O43NEW 1 × 10^5)) was 0%. The “LT50 Chem.” value [2, 17] was 3.29 days and 3.44 days, the “Average CFU” value ([3]; 0.15 mg insecticide) was 523 CFU and the “Average CFU” value ([3]; 2.0 mg insecticide) was 387 CFU. The “LT50 (95% confidence intervals) in days” value [4] was 2.20 (1.91-2.53) days, the “% Mort. Chem.” value ([4]; Chlorantraniliprole 18 mg/L) was 8% and the “LT50 Chem.” value [4, 17] was 2.20 days. For the same compound, the mortality at 18 µg/mL [5, 18] was 8%, the mortality at 18 µg/mL [5, 19] was 38% and the mortality at 18 µg/mL [6, 18] was 8%. The mortality at 18 µg/mL [6, 19] was 25%.
For `O=[N+]([O-])NC1=NCCN1Cc1ccc(Cl)nc1` [Imidacloprid], the mortality at 100 µg/mL ([7]; 24 h, isolate O333A4 1×10^5 cfu/mL, read-out: % Mortality (1DAT)) was 16%, the mortality at 100 µg/mL ([7]; 48 h, isolate O43NEW 1×10^5 cfu/mL, read-out: % Mortality (2DAT)) was 29% and the “LT50 (95% confidence intervals) in days” value ([7]; isolate O43NEW 1×10^5 cfu/mL) was 2.72 (2.40-3.08) days. For the same compound, the “LT50 (95% confidence intervals) in days” value ([7]; isolate O333A4 1×10^5 cfu/mL) was 2.72 (2.40-3.08) days, the “% Mort. Chem.” value ([7]; western flower thrips, 2 DAT (row with O43NEW)) was 29% and the “% Mort. Chem.” value ([7]; western flower thrips, 2 DAT (row with O333A4)) was 16%. The “LT50 Chem.” value ([7]; western flower thrips, Imidacloprid alone 100 mg/L) was 2.72 days, the “LT50 (95% confidence intervals)” value ([8]; imidacloprid 0.56 mg/L) was 18.03 days and the “LT50 Chem.” value ([8]; Colorado potato beetle, imidacloprid 0.56 mg/L) was 18.03 days. The “% Mort. Chem.” value ([8]; Colorado potato beetle, imidacloprid 0.56 mg/L, 6 DAT) was 5%, the “LT50 (95% confidence intervals) in days” value ([9]; 4th instar larva, imidacloprid 0.56 mg/L, isolate O43NEW 1×10^7 cfu/mL) was 20.38 (15.79-27.60) days and the “% Mort. Chem.” value ([9]; Colorado potato beetle, Imidacloprid 0.56 mg/L, 10 DAT) was 17%. The “LT50 Chem.” value ([9]; Colorado potato beetle, Imidacloprid alone 0.56 mg/L) was 20.38 days, the mortality at 0.56 µg/mL ([9]; 72 h, read-out: % Mortality (3DAT)) was 0% and the mortality at 0.56 µg/mL ([9]; 240 h, read-out: % Mortality (10DAT)) was 17%. The mortality at 0.56 µg/mL ([9]; 312 h, read-out: % Mortality (13DAT)) was 7%.
`CS/C(C)=N\OC(=O)N(C)SN(C)C(=O)O/N=C(\C)SC` [Thiodicarb] was tested, and the “LT50 Chem.” value ([1]; cabbage looper, Thiodicarb alone 140 mg/L) was 1.40 days, the “% Mort. Chem.” value ([1]; in vivo) was 25% and the “LT50 (95% confidence intervals)” value ([1]; in vivo) was 1.40 days. The “LT50 (95% confidence intervals) in days” value ([2]; 2nd instar, thiodicarb 140 mg/mL, isolate O43NEW 1×10^7 cfu/mL) was 2.02 (1.60-2.50) days, the mortality ([2]; Helicoverpa zea, foliar, 24 h, 2nd instar, thiodicarb, isolate O43NEW 1×10^7 cfu/mL, read-out: % Mortality (1DAT)) was 0% and the “% Mort. Chem.” value ([2]; Thiodicarb 140 mg/L, 1 DAT) was 0%. For the same compound, the “% Mort. Chem.” value ([2]; Thiodicarb 140 mg/L, 2 DAT) was 33%, the “LT50 Chem.” value ([2]; Thiodicarb alone 140 mg/L) was 2.02 days and the “LT50 (95% confidence intervals) in days” value [4] was 1.98 (1.57-2.45) days. For the same compound, the “% Mort. Chem.” value ([4]; Thiodicarb 140 mg/L) was 25%, the “LT50 Chem.” value ([4]; Thiodicarb alone 140 mg/L) was 1.98 days and the mortality at 140 µg/mL [5, 18] was 25%. For the same compound, the mortality at 140 µg/mL [5, 19] was 50%, the mortality at 140 µg/mL [6, 18] was 25% and the mortality at 140 µg/mL [6, 19] was 50%.
In the case of Spinosad, the “% Mortality (3DAT)” value [10] is reported as 15%, the “% Mortality (4DAT)” value [10] is reported as 20% and the “% Mortality (5DAT)” value [10] is reported as 40%. The “% Mortality (3DAT)” value [11, 20] was 80%, the “LT50 (95% confidence intervals) in days” value [11, 20] was 2.43 (2.08-2.84) days and the “% Mortality (3DAT)” value [11, 21] was 80%. The “LT50 (95% confidence intervals) in days” value [11, 21] was 2.43 (2.08-2.84) days, the “% Mort. Chem.” value ([11]; fall armyworm, Spinosad 25 mg/L, 3 DAT (row with 024G3R)) was 80% and the “% Mort. Chem.” value ([11]; fall armyworm, Spinosad 25 mg/L, 3 DAT (row with O348UX)) was 80%. The “LT50 Chem.” value ([11]; fall armyworm, Spinosad alone 25 mg/L) was 4.09 days and 2.43 days, the “% Mort. Chem.” value ([11]; in vivo) was 40% and the “LT50 (95% confidence intervals) in days” value ([11]; in vivo) was 4.09 (3.67-4.55) days. The “Average CFU” value ([3]; 0.2 mg insecticide) was 523 CFU, the “Average CFU” value ([3]; 1.0 mg insecticide) was 487 CFU and the “LT50 (95% confidence intervals)” value ([8]; spinosad […]) was 78.3 days. For the same compound, the “LT50 Chem.” value ([8]; Colorado potato beetle, spinosad […]) was 78.30 days, the “% Mortality (2DAT)” value [12] was 0% and the “% Mortality (3DAT)” value [12] was 10%. The “% Mortality (4DAT)” value [12] was 15%, the “% Mortality (7DAT)” value [12] was 40% and the “% Mortality (9DAT)” value [12] was 39%. The “% Mortality (11DAT)” value [12] was 65%, the “% Mortality (3DAT)” value [13] was 40% and the “% Mortality (2DAT)” value ([14]; 3rd instar cabbage looper, O43NEW undiluted filtrate, alone or combined, 2 DAT, Abbott's corrected) was 10%. The “% Mortality (5DAT)” value ([14]; 3rd instar cabbage looper, O43NEW undiluted filtrate, alone or combined, 5 DAT, Abbott's corrected) was 25%, the “% Mortality (6DAT)” value ([14]; 3rd instar cabbage looper, O43NEW undiluted filtrate, alone or combined, 6 DAT, Abbott's corrected) was 50% and the “% Mortality (8DAT)” value ([14]; 3rd instar cabbage looper, O43NEW undiluted filtrate, alone or combined, 8 DAT, Abbott's corrected) was 55%. For the same compound, the “% Mortality (9DAT)” value ([14]; 3rd instar cabbage looper, O43NEW undiluted filtrate, alone or combined, 9 DAT, Abbott's corrected) was 55%, the “LT50 Chem.” value ([14]; Cabbage Looper) was 7.01 days and the “% Mort. Chem.” value ([14]; Cabbage Looper, 5 DAT) was 25%. The “LT50 (95% confidence intervals)” value [15] was 8.16 days, the “LT50 Chem.” value [15] was 8.16 days and the “LT50 Chem.” value ([9]; Colorado potato beetle, Spinosad alone […]) was 6.01 days. For the same compound, the “LT50 (95% confidence intervals) in days” value ([9]; in vivo) was 6.01 (4.93-7.28) days, the “LT50 (95% confidence intervals)” value ([16]; 2nd instar diamondback moth, O43NEW filtrate 1%, alone or combined) was 8.16 days and the “LT50 Chem.” value ([16]; Diamondback moth) was 8.16 days.
